This is an account of results in US20080051418A1, “Arylalkanoic Acid Derivative” (priority 2004, published 2008).

One data set concerns the target T1, PPARγ-RXRα heterodimer (Homo sapiens, UniProt P37231).
T1 construct: expressed in transfected cells; host or cells: CHO-K1
T1 sequence (P37231 1-505): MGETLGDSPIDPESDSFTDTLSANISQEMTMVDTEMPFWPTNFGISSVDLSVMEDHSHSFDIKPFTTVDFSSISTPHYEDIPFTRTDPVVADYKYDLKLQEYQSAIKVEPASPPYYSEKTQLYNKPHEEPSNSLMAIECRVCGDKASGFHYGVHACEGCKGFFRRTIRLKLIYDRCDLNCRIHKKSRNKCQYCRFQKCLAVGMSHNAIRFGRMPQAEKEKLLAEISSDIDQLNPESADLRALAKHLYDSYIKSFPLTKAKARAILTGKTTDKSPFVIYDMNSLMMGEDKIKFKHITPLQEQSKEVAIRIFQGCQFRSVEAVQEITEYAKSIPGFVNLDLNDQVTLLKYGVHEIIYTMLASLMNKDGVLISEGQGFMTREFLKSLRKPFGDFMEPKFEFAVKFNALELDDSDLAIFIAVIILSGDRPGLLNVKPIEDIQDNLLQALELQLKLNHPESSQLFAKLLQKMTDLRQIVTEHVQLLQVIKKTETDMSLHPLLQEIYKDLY
T1 sequence (P19793 1-462 partner): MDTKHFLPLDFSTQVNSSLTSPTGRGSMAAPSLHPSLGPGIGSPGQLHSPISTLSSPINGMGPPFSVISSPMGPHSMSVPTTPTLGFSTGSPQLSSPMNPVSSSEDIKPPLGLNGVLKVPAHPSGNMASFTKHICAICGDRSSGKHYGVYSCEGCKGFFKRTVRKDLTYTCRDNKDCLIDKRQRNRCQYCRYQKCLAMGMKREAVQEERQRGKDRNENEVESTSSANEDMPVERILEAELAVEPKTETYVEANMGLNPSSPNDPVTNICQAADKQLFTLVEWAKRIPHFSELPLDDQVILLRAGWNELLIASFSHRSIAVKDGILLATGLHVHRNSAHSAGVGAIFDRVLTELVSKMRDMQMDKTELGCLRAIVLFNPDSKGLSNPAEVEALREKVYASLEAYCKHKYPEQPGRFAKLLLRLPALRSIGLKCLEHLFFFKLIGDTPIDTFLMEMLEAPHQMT
Put plainly: PPARγ-RXRα heterodimer ligand activity (luciferase reporter). Particulars: PPARγ:RXRα:4ERPP/CHO-K1 cells, 18-24 hr, concentration showing 50% of the maximum induction rate. The class given is cell-based. The gist of the method:
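CHO-K1 cells carrying PPARγ, RXRα and a 4ERPP luciferase reporter, exposed to compound 18–24 h at 37 °C in Ham F12 with 0.1% fatty acid-free BSA. Luciferase induction expressed relative to untreated cells (= 1). EC50 is concentration giving 50% of maximal induction.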
A general note: Reporter assays use an easily measured gene product as a stand-in for the process of interest.

In the next data set the target is T2, PPARδ-RXRα heterodimer (Homo sapiens, UniProt Q03181).
T2 construct: expressed in transfected cells
T2 sequence (Q03181 1-441): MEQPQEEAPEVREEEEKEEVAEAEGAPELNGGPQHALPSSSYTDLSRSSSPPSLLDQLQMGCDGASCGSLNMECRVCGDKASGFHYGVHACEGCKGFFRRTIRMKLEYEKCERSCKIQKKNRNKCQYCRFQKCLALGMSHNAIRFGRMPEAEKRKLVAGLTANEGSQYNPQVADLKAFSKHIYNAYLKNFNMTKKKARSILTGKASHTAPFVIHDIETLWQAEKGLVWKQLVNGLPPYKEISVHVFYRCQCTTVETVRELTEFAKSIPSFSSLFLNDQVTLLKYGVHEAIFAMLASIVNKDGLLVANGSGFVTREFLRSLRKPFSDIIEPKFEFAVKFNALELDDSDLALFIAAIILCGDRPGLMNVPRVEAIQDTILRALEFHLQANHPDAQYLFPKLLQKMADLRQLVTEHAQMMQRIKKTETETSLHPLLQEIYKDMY
T2 sequence (P19793 1-462 partner): T1 sequence (P19793 1-462 partner)
As to the kind of experiment: PPARδ-RXRα heterodimer ligand activity (luciferase reporter). It is filed as cell-based. Particulars: transformant of Reference Example 9a of WO03/099793, 36-48 hr, concentration showing 50% of the maximum induction rate. How it is done:
The transformant described in Reference Example 9a of WO03/099793 was suspended in a DMEM medium [manufactured by Life technologies, Inc., US] containing 0.1% fatty acid-free bovine serum albumin (BSA) (manufactured by Wako Pure Chemical Industries, Ltd.), and inoculated to each well of a 96 well white plate [manufactured by Corning Coster Corporation, US] by 80 μl to 1×10^4 cells/well. Then, the test compound (20 μl) was added, and cultured under the conditions of 37° C., 5% CO2 for 36-48 hr. The medium was removed from the 96 well white plate, 40 μl of PicaGene LT 7.5 (manufactured by Wako Pure Chemical Industries, Ltd.) diluted 2-fold with HBSS (HANKS' BALANCED SALT SOLUTION) [manufactured by BIO WHITTAKER, US] was added and, after stirring, the luciferase activity was determined using the 1420 ARVO Multilabel Counter [manufactured by PerkinElmer, US].
The induction rate was calculated from the luciferase activity of each test compound based on the luciferase activity of the test compound non-administration group as 1. The test compound concentration and the induction rate were analyzed by PRISM [manufactured by GraphPad Software, Inc., US] to calculate EC50 value (compound concentration showing 50% of the maximum value of induction rate) of the test compound.

For a further data set, the system named is KKA^y mice. As to the kind of experiment: Blood glucose and blood lipid (triglyceride) lowering action in mice. The class given is in vivo. Particulars: Mus musculus, po, 96 h, 0.005% in powder diet, 4 days, non-administration group = 100%. The text has this: The test compound was mixed with a powder diet (CE-2, CLEA JAPAN, INC.) at a proportion of 0.005% (0.01% for the compound of Example 105) and freely given to KKA^y mice (9 to 12-week-old, 5 mice per group) which are obesity-insulin independent diabetes mellitus (type-2 diabetes) models, for 4 days. During this period, water was freely given. The blood was drawn from the orbital venous plexus. Glucose and triglyceride in the plasma separated from the blood were quantitated using L Type Wako Glu2 (Wako Pure Chemical Industries, Ltd.) and L Type Wako TG•H (Wako Pure Chemical Industries, Ltd.), respectively, according to an enzyme method.

Setting [1] is: lowering rate of plasma glucose, read-out: hypoglycemic action (%).
Setting [2] is: lowering rate of plasma triglyceride, read-out: hypolipidemic action (%).

Molecules are shown by their SMILES. pEC50: −log10 of the molar value. Like-named read-outs stand apart in the source and are kept apart here.

`CC(C)Oc1ccc(CCCOc2cc(CCC(=O)O)n(-c3ccccc3)n2)c(OCc2ccc(Cl)cc2Cl)c1` [Example 160, 3-[3-(3-{2-[(2,4-dichlorobenzyl)oxy]-4-isopropoxyphenyl}propoxy) -1-phenyl-1H-pyrazol-5-yl]propanoic acid] registered a melting point of 139 to 141 °C. The molecule further showed a pEC50 on PPARγ-RXRα heterodimer of 8.28. Further, on PPARδ-RXRα heterodimer, the pEC50 is 8.22.

Take `CC(C)Cn1nc(OCCCc2ccc(OC(C)C)cc2Oc2ncc(C(F)(F)F)cc2Cl)cc1CCC(=O)O` [Example 143, 3-{3-[3-(2-{[3-chloro-5-(trifluoromethyl)pyridin-2-yl]oxy}-4-isopropoxyphenyl)propoxy]-1-isobutyl-1H-pyrazol-5-yl}propanoic acid]: the melting point fell in the range of 71 to 73 °C. Also, on PPARγ-RXRα heterodimer, the pEC50 was 8.85. On PPARδ-RXRα heterodimer, this molecule had a pEC50 of 7.96.

In the case of `CCn1cc(CC(=O)O)c(OCCCc2ccc(OC(C)C)cc2Oc2ncc(C(F)(F)F)cc2Cl)n1` [Example 117, {3-[3-(2-{[3-chloro-5-(trifluoromethyl)pyridin-2-yl]oxy}-4-isopropoxyphenyl)propoxy]-1-ethyl-1H-pyrazol-4-yl}acetic acid], the inhibition in vivo at 0.005 % in the data set with KKA^y mice (setting [1]) was 49%; with KKA^y mice (setting [2]), 18%. The pEC50 is 9.11 at PPARγ-RXRα heterodimer and 8.37 at PPARδ-RXRα heterodimer.

`COc1cccc(CC(=O)O)c1OCCCc1cc(OC(C)C)nn1Cc1ccc(C(F)(F)F)cc1Cl` [Example 66, [2-(3-{1-[2-chloro-4-(trifluoromethyl)benzyl]-3-isopropoxy-1H-pyrazol-5-yl}propoxy)-3-methoxyphenyl]acetic acid] gave a melting point of 98 to 99 °C. For the same molecule, the pEC50 at PPARγ-RXRα heterodimer is 8.92. Moreover, on PPARδ-RXRα heterodimer, the pEC50 is 8.55.

`COCCOc1ccc(CCCOc2nn(C)cc2CC(=O)O)c(Oc2ncc(C(F)(F)F)cc2Cl)c1` [Example 122, (3-{3-[2-{[3-chloro-5-(trifluoromethyl)pyridin-2-yl]oxy}-4-(2-methoxyethoxy)phenyl]propoxy}-1-methyl-1H-pyrazol-4-yl)acetic acid]: the melting point was in the range of 127 to 129 °C. Further, in the data set with KKA^y mice (setting [1]), the inhibition in vivo at 0.005 % worked out at 72%. In addition, the inhibition in vivo at 0.005 % with KKA^y mice (setting [2]) is 33%. At PPARγ-RXRα heterodimer, this molecule had a pEC50 of 8.39. Also, the negative-log EC50 (pEC50) at PPARδ-RXRα heterodimer is 7.12.

`CC(C)Oc1ccc(CCCOc2cc(CCC(=O)O)n(C(C)C)n2)c(Oc2ncc(C(F)(F)F)cc2Cl)c1` [Example 142, 3-{3-[3-(2-{[3-chloro-5-(trifluoromethyl)pyridin-2-yl]oxy}-4-isopropoxyphenyl)propoxy]-1-isopropyl-1H-pyrazol-5-yl}propanoic acid] gave a melting point of 127.5 to 128.5 °C. The molecule further gave a pEC50 on PPARγ-RXRα heterodimer of 8.15. The same molecule showed a pEC50 on PPARδ-RXRα heterodimer of 7.85.

In the case of `CC(C)Oc1ccc(CCCOc2cc(CCC(=O)O)n(-c3ccccc3)n2)c(Oc2ncc(C(F)(F)F)cc2Cl)c1` [Example 136, 3-{3-[3-(2-{[3-chloro-5-(trifluoromethyl)pyridin-2-yl]oxy}-4-isopropoxyphenyl)propoxy]-1-phenyl-1H-pyrazol-5-yl}propanoic acid], the melting point fell in the range of 86 to 88 °C. Further, the inhibition in vivo at 0.005 % in the data set on KKA^y mice (setting [1]) worked out at 57%. The inhibition in vivo at 0.005 % in the data set on KKA^y mice (setting [2]) was 38%. The pEC50 at PPARγ-RXRα heterodimer was 9.38. On PPARδ-RXRα heterodimer, this molecule gave a negative logarithm of the EC50 (pEC50) of 8.60.

With `CCn1nc(OCCCCc2ccc(OC(C)C)cc2Oc2ncc(C(F)(F)F)cc2Cl)cc1CCC(=O)O` [Example 158, 3-{3-[4-(2-{[3-chloro-5-(trifluoromethyl)pyridin-2-yl]oxy}-4-isopropoxyphenyl)butoxy]-1-ethyl-1H-pyrazol-5-yl}propanoic acid], the melting point lay within 129 to 130 °C. Moreover, on PPARγ-RXRα heterodimer, the pEC50 is 8.15. For the same molecule, the pEC50 at PPARδ-RXRα heterodimer was 7.77.

In turn, `CC(C)Oc1ccc(CCCOc2cc(CCC(=O)O)n(C)n2)c(Oc2ncc(C(F)(F)F)cc2Cl)c1` [Example 139, 3-{3-[3-(2-{[3-chloro-5-(trifluoromethyl)pyridin-2-yl]oxy}-4-isopropoxyphenyl)propoxy]-1-methyl-1H-pyrazol-5-yl}propanoic acid] displayed a melting point of 88 to 89 °C. At PPARγ-RXRα heterodimer, this molecule showed a pEC50 of 8.05. Also, the pEC50 at PPARδ-RXRα heterodimer is 7.77.

`COc1cccc(CC(=O)O)c1OCCCc1cc(OC(C)C)nn1Cc1ccc(F)cc1Cl` [Example 64, (2-{3-[1-(2-chloro-4-fluorobenzyl)-3-isopropoxy-1H-pyrazol-5-yl]propoxy}-3-methoxyphenyl)acetic acid]: the results for the inhibition in vivo at 0.005 % in the data set with KKA^y mice (setting [1]) and with KKA^y mice (setting [2]) were 59% and 71%, respectively. The figures for the pEC50 on PPARγ-RXRα heterodimer and at PPARδ-RXRα heterodimer were 7.96 and 7.03, respectively.

Turning to `CCn1nc(OCCCc2ccc(OC(C)C)cc2Oc2ncc(C(F)(F)F)cc2Cl)cc1CCC(=O)O` [Example 141, 3-{3-[3-(2-{[3-chloro-5-(trifluoromethyl)pyridin-2-yl]oxy}-4-isopropoxyphenyl)propoxy]-1-ethyl-1H-pyrazol-5-yl}propanoic acid], the melting point was in the range of 73 to 74 °C. Besides, the inhibition in vivo at 0.005 % with KKA^y mice (setting [1]) is 44%. Besides, the inhibition in vivo at 0.005 % in the data set on KKA^y mice (setting [2]) came out at 41%. The pEC50 at PPARγ-RXRα heterodimer was 8.80. Moreover, the pEC50 on PPARδ-RXRα heterodimer was 8.16.

For `COCCOc1ccc(CCCOc2cc(CCC(=O)O)n(-c3ccccc3)n2)c(Oc2ncc(C(F)(F)F)cc2Cl)c1` [Example 147, 3-(3-{3-[2-{[3-chloro-5-(trifluoromethyl)pyridin-2-yl]oxy}-4-(2-methoxyethoxy)phenyl]propoxy}-1-phenyl-1H-pyrazol-5-yl)propanoic acid], the melting point fell in the range of 128 to 129 °C. Moreover, the negative logarithm of the EC50 (pEC50) on PPARγ-RXRα heterodimer is 9.46. At PPARδ-RXRα heterodimer, this molecule gave a pEC50 of 8.36.

For the molecule `CC(C)Oc1ccc(CCCOc2cc(CCC(=O)O)n(-c3ccccc3)n2)c(OCc2ccc(C(F)(F)F)cc2)c1` [Example 166, 3-{3-[3-(4-isopropoxy-2-{[4-(trifluoromethyl)benzyl]oxy}phenyl)propoxy]-1-phenyl-1H-pyrazol-5-yl}propanoic acid], the melting point lay within 118 to 119 °C. Moreover, the pEC50 on PPARγ-RXRα heterodimer is 7.62. Also, the negative-log EC50 (pEC50) on PPARδ-RXRα heterodimer is 8.66.

For orientation: pEC50 means the negative decadic logarithm of the EC50, by convention in mol/L. High values mean a low EC50, low ones a high EC50. A word on the melting point: it is the temperature, or range, at which the solid turns liquid.
